Laboratory results reported in patent US20070009544A1, “Anti-allergic complex molecules” (priority 1999, published 2007).
“Also recorded” adds a separate entry of the source. Marks after values point to notes of the source that are not given here. Bridge positions count the residues as written; N and C are the ends. Square brackets hold non-standard residues; d marks the D form. Ends that are not written are not given here. Peptide text beside a SMILES is read from it. Phe(4-NH2) = Nc1ccc(C[C@H](N)C(=O)O)cc1

Experiments:
[1] = tested on: purified rat peritoneal mast cells; experiment: Histamine secretion from intact mast cells incubated with peptide alone (secretagogue side effect); conditions: for Secretagogue (histamine secretion following incubation of mast cell with different concentrations of each peptide): no allergen; for histamine secretion from mast cells on incubation with increasing concentrations of peptide alone: no additional allergen
[2] = tested on: purified rat peritoneal mast cells; format: cell-based
Summary of the method: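 Intact purified rat peritoneal mast cells were incubated at 37° C with increasing peptide concentrations, then stimulated with 5 μg/ml compound 48/80 (maximal release). Histamine secretion is expressed as % of total cellular histamine after subtracting spontaneous release, as the mean of duplicates.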

[3] = tested on: abdominal skin of C.R rats; experiment: Rat skin test: intradermal injection of peptide, then intradermal compound 48/80 or vehicle, wheal area; format: in vivo
Summary of the method: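 Peptide was injected intradermally (20 μl, in 10% DMSO/saline) at 20 or 200 μg; after 0.5 or 1 h, 20 μl compound 48/80 (0.1 mg/ml) or vehicle was injected intradermally at the same site. Wheal outlines were traced and areas measured by planimeter, reported as mean wheal area.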

[4] = Peptide solubility (remarks; assay medium, Tyrode buffer); format: physicochemical
mice = experiment: IgE-independent mouse conjunctivitis induced by compound 48/80, clinical score; format: in vivo; design: scale not given here; conditions: drug 2% followed by vehicle
Method: A murine model was chosen as an in vivo model of IgE-independent human conjunctivitis, induced by a basic secretagogue.
Six groups of mice were topically treated as described in Table 19. The first application was installed 4 times (24 hours, 21 hours, 18 hours and 30 minutes) prior to the second application.
Clinical evaluation of allergic conjunctivitis was conducted in a blind fashion by determining the extent and intensity of lid edema, chemosis, erythema and tearing.

[5] = tested on: abdominal skin of C.R rats; experiment: Rat skin test: topical application of peptide, then intradermal compound 48/80 or saline, wheal area; format: in vivo
Method: The hair of the abdominal area of C.R rats was carefully removed with an electric clipper and a depilatory cream. In each animal the abdominal area was divided to six equal zones that were marked by pen. Each zone was either subjected to peptide treatment or served as a control. In the first set of experiments, the peptide was topically applied as follows: 36 μl of peptide solution at the indicated concentration (dissolved in 72% DMSO in saline) was applied on desired abdominal area. In the second set of experiments, the peptide was injected intradermally as follows: 20 μl of peptide solution at different concentrations (dissolved in 10% DMSO in saline) was injected intradermally to an indicated abdominal area using a 27-gauge sterile needle.
Skin tests were performed 0.5, 1 or 2 hours following application of the peptide. Skin tests were performed by injecting intradermally 20 μl of the allergen (0.1 mg/ml compound 48/80 dissolved in saline) or saline alone, into the center of each marked area on the abdominal skin using a 27-gauge sterile needle. The allergic response was monitored by outlining with a marker the wheals which developed in response to allergen or saline treatment.
To quantitate the skin test results, the marker signs were transferred onto paper with scotch tape. The areas of the wheals were outlined and calculated by a computerized planimeter (Hewlett-Packard), as previously described (Sussman et al., 1982).

[6] = intradermal peptide 1 mg/ml, 0.5 hour before, vehicle instead of compound 48/80
[7] = intradermal peptide 1 mg/ml, 1 hour before, vehicle instead of compound 48/80
[8] = intradermal peptide 10 mg/ml, 0.5 hour before, vehicle instead of compound 48/80
[9] = intradermal peptide 10 mg/ml, 1 hour before, vehicle instead of compound 48/80

For CC(C)C[C@@H]1NC(=O)CNC(=O)[C@H](CS)NC(=O)[C@H](CCC(=O)O)NC(=O)[C@H](CCCCN)NC(=O)[C@H](CC(C)C)NC(=O)[C@H](CC(N)=O)NC(=O)[C@H](CC(N)=O)NC(=O)[C@@H](NC(=O)[C@@H]2CCCN2C(=O)[C@H](C)NC(=O)[C@H](CC(C)C)NC(=O)[C@H](CC(C)C)NC(=O)[C@H](C)NC(=O)[C@H](CC(C)C)NC(=O)[C@H](CC(C)C)NC(=O)[C@@H](NC(=O)[C@H](C)NC(=O)[C@@H]2CCCN2C(=O)[C@H](CC(C)C)NC(=O)[C@H](CC(C)C)NC(=O)[C@H](C)NC(=O)[C@@H](NC(=O)[C@H](C)NC(=O)[C@H](C)N)C(C)C)C(C)C)CCCCNC(=O)[C@H](Cc2ccc(O)cc2)NC1=O [Peptide 2-Cyc] (H-AAVALLPAVLLALLAPKNNLKECGLY; lactam 17-C; N-terminus assumed), the “side effects of histamine secretion in mast cells, peptide alone” value ([1]; at a concentration of 100 μg/ml) was “only minor side effects of histamine secretion”, the “Inhibitor (degree of inhibition of histamine secretion from mast cells)” value ([2]; Table 1, incubation with different concentrations of each peptide, then induction of the allergic reaction) was “+ (+ Poor inhibitor (<50% inhibition))” and the “effect on compound 48/80 induced histamine secretion” value ([2]; range of peptide concentrations tested) was “only limited potential to block compound 48/80 induced histamine secretion”. For the same molecule, the “block of compound 48/80 induced allergic reaction in vivo, rat skin” value ([3]; intradermal peptide) was “less effective than peptide 2”, the “Mean Wheal Area ± STD, Compound 48/80” value ([3]; intradermal peptide 1 mg/ml, 0.5 hour before allergic induction) was 104.4 ± 45.8 (n = 5) mm^2 and the “Mean Wheal Area ± STD, Vehicle” value [3, 6] was 61.4 ± 30.9 (n = 5) mm^2. For the same molecule, the “Mean Wheal Area ± STD, Compound 48/80” value ([3]; intradermal peptide 1 mg/ml, 1 hour before allergic induction) was 84.5 ± 29.7 (n = 6) mm^2, the “Mean Wheal Area ± STD, Vehicle” value [3, 7] was 54.6 ± 12.1 (n = 6) mm^2 and the “Mean Wheal Area ± STD, Compound 48/80” value ([3]; intradermal peptide 10 mg/ml, 0.5 hour before allergic induction) was 82.6 ± 50.6 (n = 5) mm^2. The “Mean Wheal Area ± STD, Vehicle” value [3, 8] was 58.8 ± 29.6 (n = 5) mm^2, the “Mean Wheal Area ± STD, Compound 48/80” value ([3]; intradermal peptide 10 mg/ml, 1 hour before allergic induction) was 75.3 ± 28.4. (n = 6) mm^2 and the “Mean Wheal Area ± STD, Vehicle” value [3, 9] was 45.0 ± 7.9 (n = 6) mm^2. For the same molecule, the “reduction of compound 48/80 induced allergic reaction” value ([3]; intradermal peptide 0.5 hour before allergic induction) was “significant decrease in wheal area”, the “reduction of compound 48/80 induced allergic reaction” value ([3]; intradermal peptide, lower dose or 1 hour before allergic induction) was “had no effect” and the “solubility” value [4] was “very poor solubility”.
In the case of CC(C)C[C@H](NC(=O)CNC(=O)[C@H](CS)NC(=O)[C@H](CCC(=O)O)NC(=O)[C@H](CCCCN)NC(=O)[C@H](CC(C)C)NC(=O)[C@H](CC(N)=O)NC(=O)[C@H](CC(N)=O)NC(=O)[C@H](CCCCN)NC(=O)[C@@H]1CCCN1C(=O)[C@H](C)NC(=O)[C@H](CC(C)C)NC(=O)[C@H](CC(C)C)NC(=O)[C@H](C)NC(=O)[C@H](CC(C)C)NC(=O)[C@H](CC(C)C)NC(=O)[C@@H](NC(=O)[C@H](C)NC(=O)[C@@H]1CCCN1C(=O)[C@H](CC(C)C)NC(=O)[C@H](CC(C)C)NC(=O)[C@H](C)NC(=O)[C@@H](NC(=O)[C@H](C)NC(=O)[C@H](C)N)C(C)C)C(C)C)C(=O)N[C@@H](Cc1ccc(N)cc1)C(=O)O [WALL005] (H-AAVALLPAVLLALLAPKNNLKECGL[Phe(4-NH2)]-OH; N-terminus and C-terminus assumed), the “Secretagogue (histamine secretion following incubation of mast cell with different concentrations of each peptide)” value ([1]; Table 9, peptide alone) is reported as “+”, the “histamine secretion from mast cells on incubation with increasing concentrations of peptide alone” value [1] is reported as “resulted in histamine secretion” and the “solubility” value [4] is reported as “severe solubility problems”.
In the case of AAVALLPAVLLALLAPKNNLKECGLY [Peptide 2], the “Secretagogue (histamine secretion following incubation of mast cell with different concentrations of each peptide)” value ([1]; Table 1, peptide alone) is reported as “−”, the “IC50, compound 48/80 induced histamine secretion” value [2] is reported as 400 µg/mL and the “Mean Wheal Area ± STD, Vehicle” value ([3]; Tables 17A-B, column head '0.1' (no unit), 0.5 hr prior to allergy induction) is reported as 57.0 ± 8.3 (n = 12) mm^2. The “Mean Wheal Area ± STD, Vehicle” value ([3]; Tables 17A-B, column head '0.1' (no unit), 1 hour prior) was 56.2 ± 11.3 (n = 5) mm^2, the “Mean Wheal Area ± STD, Vehicle” value ([3]; Tables 17A-B, column head '1' (no unit), 0.5 hr prior) was 61.7 ± 13.5 (n = 19) mm^2 and the “Mean Wheal Area ± STD, Vehicle” value ([3]; Tables 17A-B, column head '1' (no unit), 1 hour prior) was 50.6 ± 7.4 (n = 5) mm^2. The “Net wheal area, effect of peptide (alone)” value (“Net wheal area, effect” for short) ([3]; intradermal 1 mg/ml, Animal A, 0.5 hour) was 3.29 mm2, the “Net wheal area, effect” value ([3]; intradermal 1 mg/ml, Animal B, 1 hour) was 7.0 mm2 and the “Net wheal area, effect” value ([3]; intradermal 1 mg/ml, Animal C, 2 hours) was 16.5 mm2. The “Net wheal area, effect” value ([3]; intradermal 10 mg/ml, Animal A, 0.5 hour) was −1.68 mm2, the “Net wheal area, effect” value ([3]; intradermal 10 mg/ml, Animal B, 1 hour) was −9.9 mm2 and the “Net wheal area, effect” value ([3]; intradermal 10 mg/ml, Animal C, 2 hours) was −3.0 mm2. For the same molecule, the “Mean Wheal Area ± STD, Vehicle” value [3, 6] was 60.7 ± 19.3 (n = 7) mm^2, the “Mean Wheal Area ± STD, Vehicle” value [3, 7] was 52.3 ± 11.1 (n = 5) mm^2 and the “Wheal area, saline injection (control)” value ([3]; intradermal peptide 1 mg/ml, animal a, 0.5 hour after injection) was 65.78^a mm2. For the same molecule, the “Wheal area, saline injection (control)” value ([3]; intradermal peptide 1 mg/ml, animal b, 1 hour) was 119.2^b mm2, the “Wheal area, saline injection (control)” value ([3]; intradermal peptide 1 mg/ml, animal c, 2 hours) was 77.31^c mm2 and the “Mean Wheal Area ± STD, Vehicle” value [3, 8] was 54.8 ± 11 (n = 5) mm^2. For the same molecule, the “Mean Wheal Area ± STD, Vehicle” value [3, 9] was 50.6 ± 7.411 (n = 5) mm^2, the “Wheal area, saline injection (control)” value ([3]; intradermal peptide 10 mg/ml, animal a, 0.5 hour) was 60.81^a mm2 and the “Wheal area, saline injection (control)” value ([3]; intradermal peptide 10 mg/ml, animal b, 1 hour) was 102.3^b mm2. The “Wheal area, saline injection (control)” value ([3]; intradermal peptide 10 mg/ml, animal c, 2 hours) was 57.81^c mm2, the “effect of intradermal injection of peptide alone on the cutaneous allergic reactions” value ([3]; without compound 48/80) was “hardly any stimulatory effect; also recorded: no cutaneous allergic reaction” and the “Average Score, Erythema” value (mice; no compound 48/80) was 0.6. For the same molecule, the “Average Score, Lid edema” value (mice; no compound 48/80) was 0, the “Average Score, Tearing” value (mice; no compound 48/80) was 0.2 and the “Average Score, Total score” value (mice; no compound 48/80) was 0.8. For the same molecule, the “Average Score, Chemosis” value (mice; no compound 48/80 (Table 19 group 2)) was 0, the “stimulatory effect of topical peptide by itself on the cutaneous allergic reactions” value ([5]; peptide and saline injection, without compound 48/80) was “no stimulatory effect” and the “Net wheal area, effect” value ([5]; topical 1 mg/ml, Animal A, 1 hour after application) was −8.8 mm2. For the same molecule, the “Net wheal area, effect” value ([5]; topical 1 mg/ml, Animal B (footnote: 1 hour after application)) was −5.5 mm2, the “Net wheal area, effect” value ([5]; topical 10 mg/ml, Animal A, 1 hour after application) was −8.3 mm2 and the “Net wheal area, effect” value ([5]; topical 10 mg/ml, Animal B (footnote: 1 hour after application)) was −6.0 mm2. The “Wheal area, saline injection (control)” value ([5]; topical peptide 1 mg/ml, animal a, skin test 1 hour after application) was 84.64^a mm^2, the “Wheal area, saline injection (control)” value ([5]; topical peptide 1 mg/ml, animal b, 2 hours after application) was 66.91^b mm^2 and the “Wheal area, saline injection (control)” value ([5]; topical peptide 10 mg/ml, animal a, 1 hour after application) was 85.24^a mm^2. For the same molecule, the “Wheal area, saline injection (control)” value ([5]; topical peptide 10 mg/ml, animal b, 2 hours after application) was 66.40^b mm^2.
In the case of VTVLALGALAGVGVGKNNLKECGLY [Peptide 1], the “Secretagogue (histamine secretion following incubation of mast cell with different concentrations of each peptide)” value ([1]; Table 9, peptide alone) is reported as “+”, the “histamine secretion from mast cells on incubation with increasing concentrations of peptide alone” value [1] is reported as “resulted in histamine secretion” and the “stimulatory effect on histamine secretion” value ([1]; peptide alone, concentration range of up to 400 p.g/ml (FIG. 1A)) is reported as “hardly any stimulatory effect”. The “solubility” value [4] was “no solubility problems”.
